Consider five compounds from patent US11311513B2, “Methods, agents, and compositions for the treatment of acute myeloid leukemia” (UNIVERSITY OF CINCINNATI, priority 2017, dated 2022).

Structures are written as SMILES.

Holding throughout (type): cell-based
The test system of assay [1] is THP-1 NSC-370284-resistant clones. Description: Viability of THP-1 NSC-370284-resistant clones with chemotherapy drugs. As to conditions: 3 resistant clones; 48 hours. The method, then:
FIG. 6. […] (a) NSC-370284-resistant AML cells are sensitive to DNR. Three of the THP-1 NSC-370284-resistant clones (DRC-1-3) and the parental control were treated with DNR at indicated doses. Cell viability was tested 48 hours after the treatments. […] Relative cell viability at 48 hours post drug treatment is shown. Error bar indicates SD of triplicate experiments. (d) Synergistic therapy of NSC-370284 or UC-514321 in combination with standard chemotherapy. Secondary BMT recipient mice were transplanted with primary MLL-AF9 leukemic BM cells. […] 5-9 mice were included in each group. Kaplan-Meier curves are shown. The P values were determined by log-rank test. (e) Wright-Giemsa staining of mouse PB and BM, or H&E staining of mouse spleen and liver of MLL-AF9 secondary BMT recipients treated with “5+3” alone, or combinational therapy.
Long-term treatment with a drug may cause drug resistance in patients, and thus combinatory therapy is often required. To treat AML cells that have gained resistance to inhibitors, the effects of a set of first-line AML chemotherapy drugs including daunorubicin (DNR), cytarabine (AraC), all-trans retinoic acid (ATRA), azacytidine (AZA), and decitabine (DAC) on the viability of parental THP-1 cells and three NSC-370284-resistant clones were investigated (FIG. 6a and FIG. 18a-d).

In assay [2] the test system is Tet1 deficient mouse BM progenitor cells transduced with MLL-AF9. Description: Viability of MLL-AF9-transduced Tet1 deficient BM progenitor cells. Conditions: 48 hrs; 200 nM (FIG. 13). The method, then: FIG. 5. […] Gene expression levels are shown. […] ChIP-qPCR assay was carried out 48 hrs after drug treatment. Enrichment of STAT3, STAT5, or IgG at the TET1 promoter region and other regions are shown. […] BM progenitor cells of wild-type or Tet1^−/− mice were retrovirally transduced with MLL-AF9. […] Relative cell viabilities are shown. (m) Cre-Tet1f mouse BM progenitor cells were retrovirally transduced with MLL-AF9. […] Relative cell viability is shown. (n-o) THP-1 (n) and MONOMAC-6 (o) cells were infected with lentivirus of pLenti-puro vector-based Tet1 construct. […] Relative cell viability is shown. *, P<0.05; **, P<0.01, two-tailed t-test. Error bar indicates SD of triplicate experiments.
FIG. 13. […] (a-d) BM progenitor cells of wild-type or Tet1^−/− mice were retrovirally transduced with MLL-AF9. Infected cells were treated with 200 nM JAK/STAT inhibitors individually, including Pacritinib (a), KW-2449 (b), Stattic (c) or sc-355979 (d), for 48 hrs. Relative cell viabilities are shown. (e) Cre-Tet1^fl/fl mouse BM progenitor cells were retrovirally transduced with MLL-AF9. […] Cell viabilities (normalized to non-induced Cre-Tet1^fl/fl treated with DMSO control) are shown. ‘K, P<0.05; ‘K‘K, P<0.01, two-tailed t-test
siRNAs were transfected into MONOMAC-6 cells with Cell Line Nucleofector Kit V following program T-037, using the Amaxa Nucleofector Technology (Amaxa Biosystems, Berlin, Germany). Experiments were performed 48 h after transfection. Retrovirus infection of mouse BM progenitor cells were conducted as described previously with some modifications. Briefly, retrovirus vectors were co-transfected with pCL-Eco packaging vector (IMGENEX, San Diego, Calif.) into HEK293T cells using Effectene Transfection Reagent (Qiagen, Valencia, Calif.) to produce retrovirus. BM cells were harvested from a cohort of 4- to 6-week-old C57BL/6, Tet1^−/−, or Cre-Tet1^fl/fl donor mice after five days of 5-fluorouracil (5-FU) treatment, and primitive hematopoietic progenitor cells were enriched with Mouse Lineage Cell Depletion Kit (Miltenyi Biotec Inc., Auburn, Calif.). An aliquot of enriched hematopoietic progenitor cells was added to retroviral supernatant together with polybrene in cell culture plates, which were centrifuged at 2,000 g for 2 hours at 32° C. (i.e., spinoculation) and then the medium was replaced with fresh media and incubated for 20 hours at 37° C. Next day, the same procedure was repeated once. Infected cells were grown in RPMI 1640 medium containing 10 ng/mL murine recombinant IL-3, 10 ng/mL IL-6, 100 ng/mL murine recombinant SCF (R&D Systems, Minneapolis, Minn.), along with 1.0 mg/ml of G418. Experiments were performed 7 days after infection.
(§1) These experiments were conducted as described previously (Jiang, X., et al., Blockade of miR-150 Maturation by MLL-Fusion/MYC/LIN-28 Is Required for MLL-Associated Leukemia, Cancer Cell 22:524-35 (2012); Li, Z., et al., miR-196b directly targets both HOXA9/MEIS1 oncogenes and FAS tumour suppressor in MLL-rearranged leukaemia, Nat Commun 2:688 (2012)) with ApoLive-Glo Multiplex Assay Kit, or CellTiter 96 AQueous Non-Radioactive Cell Proliferation Assay Kit (Promega, Madison, Wis.).

The test system of assay [3] is TET1-high AML (including MONOMAC-6, THP-1, and KASUMI-1) cells. The assay can be described thus: MTS viability of AML cell lines versus JAK/STAT inhibitors. Conditions: MTS 48 hrs; maximum concentration tested 500 nM. The method, then: FIG. 4. […] (a) Structures of NSC-370284 and UC-514321. […] Cells were treated with drugs at indicated doses. Cell viability was detected by MTS 48 hrs post-treatment. Error bar indicates SD of triplicate experiments. […] Secondary BMT recipient mice were transplanted with primary leukemic BM cells with MLL-AF9 (f) or AML-ETO9a (g). […] Kaplan-Meier curves are shown. The P values were determined by log-rank test. […] Secondary BMT recipient mice were transplanted with primary leukemic BM cells with MLL-AF10 or FLT3-ITD/NPM1^mut. […] Kaplan-Meier curves are shown. The P values were determined by log-rank test. (j) Wright-Giemsa staining of mouse PB and BM, or H&E staining of mouse spleen and liver of MLL-AF9 AML secondary BMT recipients with or without drug treatment.
as §1

Consider `COc1cccc2c1C(=O)c1c(O)c3c(c(O)c1C2=O)C[C@@](O)(C(C)=O)C[C@@H]3O[C@H]1C[C@H](N)[C@H](O)[C@H](C)O1` [DNR, daunorubicin], for which, in assay [1], the “sensitivity of drug-resistant clones relative to parental THP-1 control” value is reported as “much more sensitive”. In the case of `O=C(c1ccc(/C=C/c2n[nH]c3ccccc23)cc1)N1CCNCC1` [KW-2449, reference compound], the “difference in cell viability between wild-type and Tet1 deficient cells” value in assay [2] is recorded as “no significant differences”. Still for that read-out and setting: to `C1=C/COCc2cc(ccc2OCCN2CCCC2)Nc2nccc(n2)-c2cccc(c2)COC/1` [Pacritinib, reference compound] belongs “no significant differences”. For `O=[N+]([O-])c1ccc2c(c1)S(=O)(=O)C=C2` [Stattic, reference compound], the “inhibitory effects on the viability of these AML cells” value in assay [3] is reported as “did not show significant inhibitory effects”. Besides, the “difference in cell viability between wild-type and Tet1 deficient cells” value in assay [2] was “no significant differences”. The like results for `O=C(NN=Cc1coc2ccccc2c1=O)c1cccnc1` [sc-355979, reference compound] were, in that order, “did not show significant inhibitory effects” and “no significant differences”.
